Consider 3 compounds from US20120284853A1, “HERBICIDE-TOLERANT PLANTS” (BASF AGROCHEMICAL PRODUCTS, B.V., priority 2009, published 2012).

The structures appear in SMILES notation.

Assay [1] has as its system ACCase-inhibitor tolerant rice plants. Kind of assay: Field treatment of ACCase-inhibitor tolerant rice plants. The assay is classed as in vivo. The following applies: 600 g/ha treatment; data not shown.
Assay [2] relates to rice plants. Kind of assay: Greenhouse spray test of M0 regenerants, rated for herbicide injury. The conditions noted are these: 400-1600 g ai/ha with 0.1% methylated seed oil, subset 800 g ai/ha, rated 1 and 2 weeks after treatment. The assay is classed as in vivo. As to the method: Selected mutants and escapes were transferred to small pots. Wild-type cultivars and 3 biovars of red rice were germinated from seed to serve as controls.
After ca. 3 weeks post-transplant, M0 regenerants were sprayed using a track sprayer with 400-1600 g ai/ha cycloxydim (BAS 517H) supplemented with 0.1% methylated seed oil. After the plants had adapted to greenhouse conditions, a subset were sprayed with 800 g ai/ha cycloxydim. Once sprayed, plants were kept on drought conditions for 24 hours before being watered and fertilized again. Sprayed plants were photographed and rated for herbicide injury at 1 (FIG. 3) and 2 weeks after treatment (FIG. 4). […] FIGS. 5-15 provide nucleic acid and/or amino acid sequences of acetyl-Coenzyme A carboxylase enzymes from various plants. FIG. 17 provides a graph showing results for mutant rice versus various ACCase inhibitors.

Assay [3] relates to rice calli derived from Oryza sativa subsp. indica. The experiment in a line: Kill curves of rice calli in tissue culture (toxic levels of ACCase inhibitors). The following applies: determined by kill curves and observations of continued culture; rice calli on R001M. The assay is classed as cell-based. How it is done: FIG. 1 is a bar graph showing relative growth rice calli derived from Oryza sativa subsp. indica grown in the presence of difference selection levels of herbicide.
Once tissue culture conditions were determined, further establishment of selection conditions were established through the analysis of tissue survival in kill curves with cycloxydim, tepraloxydim, sethoxydim (FIG. 1) or haloxyfop (not shown). Careful consideration of accumulation of the herbicide in the tissue, as well as its persistence and stability in the cells and the culture media was performed. Through these experiments, a sub-lethal dose has been established for the initial selection of mutated material.
After the establishment of the starting dose of sethoxydim, cycloxydim, tepraloxydim, and haloxyfop in selection media, the tissues were selected in a step-wise fashion by increasing the concentration of the ACCase inhibitor with each transfer until cells are recovered that grew vigorously in the presence of toxic doses (see FIG. 2). […] Over 26,000 calli were subjected to selection for 4-5 subcultures until the selective pressure was above toxic levels as determined by kill curves and observations of continued culture. Toxic levels were determined to be 50 μM sethoxydim, 20 μM cycloxydim, 2.5 μM tepraloxydim (FIG. 1) and 10 μM haloxyfop (not shown).

Take `CCCC(=NOCC)C1=C(O)CC(C2CCCSC2)CC1=O` (centres unmarked) [cycloxydim]: the “herbicide tolerance phenotype in the field” value in assay [1] is given as “Herbicide tolerance phenotypes as described herein have also been exhibited”. In addition, the herbicide injury entry in assay [2] (control plants and tissue culture escapes) is given as “heavily damaged”; in assay [2] (plants containing the I1,781(Am)L heterozygous mutation) it was “No injury”.
Turning to `CCC/C(=N\OCC)C1=C(O)CC(CC(C)SCC)CC1=O` (centres unmarked) [sethoxydim], in assay [3], the Toxic levels was determined as 50 µM.
In assay [3], `CC/C(=N\OC/C=C/Cl)C1=C(O)CC(C2CCOCC2)CC1=O` (centres unmarked) [tepraloxydim] had a Toxic levels of 2.5 µM.
